Laboratory results reported in patent US20150218534A1, “MODIFIED DNA POLYMERASE” (TOYOBO CO., LTD., priority 2012, published 2015).

Experiments:
[1] = system: bisulfite-treated human genomic DNA (MINT1, RAR, THBS1, MINT31); experiment: PCR amplification of bisulfite-treated DNA; format: biochemical; conditions: 40 cycles (FIG. 12)
Protocol: Using bisulfite-treated DNA as a template and various primers, the difference in PCR amplification was compared. For comparison, KOD mutant (Y7A/V93K) and KOD (wild-type), each mixed with 1 μg of a KOD antibody per U of the enzyme, and Taq DNA polymerase mixed with an antibody (a mixture of equal amounts of Taq DNA polymerase (produced by Toyobo Co. Ltd.) and Anti-Taq High (produced by Toyobo Co. Ltd.)) were used.
The bisulfite-treated DNA used was human genomic DNA (produced by Roche) that had been treated with a MethylCode Bisulfite Conversion Kit of Invitrogen.
For PCR with the KOD mutant (Y7A/V93K) and PCR with the KOD, a buffer, MgSO4, and dNTPs included in KOD-Plus-Ver. 2 (produced by Toyobo Co. Ltd.) were used. 50 μl of individual reaction solutions containing 1× PCR buffer, 1.5 mM MgSO4, dNTPs (dATP, dTTP, dCTP, dGTP) in an amount of 0.2 mM, primers (SEQ ID NOs: 42 and 43 for amplification of MINT1; SEQ ID NOs: 44 and 45for amplification of RAR; SEQ ID NOs: 46 and 47 for amplification of THBS1; SEQ ID NOs: 48 and 49 for amplification of MINT31) in an amount of 15 pmol, 1 μl of bisulfite-treated DNA extract, and 1 U of each respective enzyme mixed with the antibody were used. PCR was performed using a GeneAmp PCR system 9700 (Applied Biosystems) on the following schedule: preliminary reaction at 94° C. for 2 minutes, followed by 40 cycles, each cycle consisting of 98° C. for 10 seconds, 55° C. for 15 seconds, and 68° C. for 1 minute.
For PCR with the Taq DNA polymerase, 50 μl of a reaction solution containing 1× buffer included in Blend Taq (product of Toyobo), dNTPs (dATP, […], dCTP, dGTP) in an amount of 0.2 mM, primers in an amount of 15 pmol (the same as above), 1 μl of bisulfite-treated DNA extract, and 2.5 U of the enzyme mixed with the antibody was used. […]
After the completion of each individual reaction, each of the resulting reaction solutions was analyzed using a DNA-1000 kit for MultiNA (produced by Shimadzu Corporation) to confirm amplified DNA fragments.

[2] = system: 0.7 kbp of human β-globin amplified in PCR with dUTP; experiment: Degradation with UNG of DNA amplified in the presence of dUTP; format: biochemical; conditions: for degradation with UNG of DNA amplified with the polymerase in the presence of dUTP: 37° C. for 10 minutes (FIG. 13)
Protocol: It was confirmed whether 0.7 kbp of human β-globin amplified using KOD mutant with reduced uracil sensitivity (N210D/Y7A/P36H) in PCR with dUTP was degraded by being reacted with UNG. For PCR, components included in KOD-Plus-Ver. 2 (produced by Toyobo Co. Ltd.) were used. 50 μl of a reaction solution containing 1× PCR buffer, 1.5 mM MgSO4, dNTPs (dATP, dUTP, dCTP, dGTP) in an amount of 2 mM in which dTTP was replaced by dUTP, primers (SEQ ID NOs: 50 and 51) in an amount of 15 pmol, 10 ng of human genomic DNA (produced by Roche), and 1 U of the enzyme mixed with an antibody was used. PCR was performed using a GeneAmp PCR system 9700 (Applied Biosystems) on the following schedule: preliminary reaction at 94° C. for 2 minutes, followed by 35 cycles, each cycle consisting of 98° C. for 10 seconds, 60° C. for 30 seconds, and 68° C. for 1 minute. The amplification products were diluted with the above-mentioned 1× PCR buffer to 10 ng/μl, 8 μl of the diluted amplification products was mixed with 2 μl of various concentrations of UNG (produced by Roche), and the mixtures were reacted at 37° C. for 10 minutes. After the completion of each individual reaction, each of the mixtures was analyzed using a DNA-1000 kit for MultiNA (produced by Shimadzu Corporation) to confirm the amount of amplification products.

Row | Substance | amplification of bisulfite-treated DNA [1] | degradation with UNG of DNA amplified with the polymerase in the presence of dUTP [2] | amount of UNG that completely degraded the amplified DNA ([2]; 80 ng of DNA, 37° C. for 10 minutes)
1 | KOD Y7A/V93K: modified KOD DNA polymerase with Y7A and V93K | stable amplification was confirmed | the DNA was degraded with UNG | –
2 | KOD Y7A/P36H: modified KOD DNA polymerase with Y7A and P36H | – | the DNA was degraded with UNG | –
3 | KOD N210D/Y7A/P36H: KOD N210D (exo(−)) mutant with Y7A and P36H | – | can be degraded by being reacted with UNG | 0.25 U
